Data: patent US12630520B2, “Left-handed bicyclic morpholine and salt thereof, preparation method therefor, pharmaceutical composition, and use” (Institute of Materia Medica, Chinese Academy of Medical …, priority 2019, dated 2026)

Columns and labels:
HepG2 cells [1] = assay: 4-Acetamidophenol (APAP)-induced in vitro hepatocyte injury, MTT and LDH; type: cell-based, human; settings: HepG2, 10 μM, 8 mM APAP
Protocol: (§1) Human liver cancer HepG2 cell well retained the characteristics of normal human hepatocytes, and they were grown in a DMEM medium containing 10% of fetal calf cerium (containing 100 U/mL of penicillin and 100 μg/mL of streptomycin) at the culturing conditions: 37° C., 5% of CO2 and a saturated humidity. A solution containing 0.25% of trypsin and 0.02% of EDTA was used for digestions and passages.
(§2) A MTT method was adopted. The HepG2 cells were inoculated in a 96-well cell culture plate, and after 24 hour cultures, the (+)IMM-H014, the (−)IMM-H014 and the (±)IMM-H014 were added in a non-toxic concentration whilst the 4-acetamidophenol (APAP, a final concentration of 8 mM) was added thereto. A Bicyclol positive control group, a solvent control group and a model group were set for the experiment. The culture was continued for 24 h. 100 μL of the culture solution was taken and centrifuged, and a full-automatic biochemical analyzer in a LDH detection kit was utilized to detect the LDH level therein. The remaining culture solution was discarded, and to each well, 100 μL of a MTT (0.5 mg/mL) solution was added to continue the culture for 4 hours. The MTT solution was discarded, and to each well, 150 μL of DMSO was added. The mixture was oscillated by a mixing oscillator, and the absorbance value was measured at a wavelength of 570 nm in a microplate reader. Cell survival rate (%)=(OD mean of administration group/OD mean of solvent control group)×100%.
(§3) The data were presented as a number mean±standard deviation (x±SD).

HepG2 cells [2] = assay: Carbon tetrachloride (CCl4)-induced in vitro hepatocyte injury, MTT; type: cell-based, human; settings: HepG2, 10 μM
Protocol: as §1, with “cells” for “cell”
as §2, with “carbon tetrachloride (CCl4,” for “4-acetamidophenol (APAP,”, “0.6%)” for “8 mM)”, “They acted on the cells continuously” for “The culture was continued”, “h.” for “h. 100 μL of the culture solution was taken and centrifuged, and a full-automatic biochemical analyzer in a LDH detection kit was utilized to detect the LDH level therein.”, “The” for “The remaining”, “to” for “to continue the”
as §3

COC(=O)c1cc(OC)c2c(c1-c1c(CO)cc(OC)c3c1OCO3)OCO2 [Bicyclol]
Survival rates (%) (HepG2 cells [1]; 24 h, MTT): 50.67% | OD Mean ± SD (HepG2 cells [1]; 24 h, MTT, 570 nm): 0.454 ± 0.092 | Cell survival rate increase (%) (HepG2 cells [1]; versus model group): 32.2% | Survival rates (%) (HepG2 cells [2]; 0.6% CCl4, 24 h, MTT): 89.47% | OD Mean ± SD (HepG2 cells [2]; 0.6% CCl4, 24 h, MTT, 570 nm): 0.819 ± 0.099 | Cell survival rate increase (%) (HepG2 cells [2]; 0.6% CCl4, versus model group): 15.36%
